The values below come from patent US20050106152A1, “Preventives/remedies for cancer” (priority 2001, published 2005).

For data set [1], the system named is Breast cancer cell line MDA-MB-231. Briefly: apoptosis by cell death detection ELISA after antisense oligonucleotide transfection. The class given is cell-based, human. The settings on record: MDA-MB-231 cells, 3 days after transfection, compared to control (100%). Background: An ELISA detects its analyte on a solid surface through an enzyme-linked reagent.
The test system of a further data set is SUV39H1. Briefly: quantitative PCR of SUV39H1 expression (RNA) after antisense oligonucleotide transfection. In kind it is cell-based, human. The settings on record: MDA-MB-231 cells, 7 hours after transfection, compared to control (reverse) oligonucleotide (100%). From the text:
First, the antisense (SEQ ID NO: 4) to the full-length sequence shown by SEQ ID NO: 3 was designed. Thereafter, phosphorothioated oligonucleotide was synthesized, purified on HPLC and used for the transfection test (Amersham Pharmacia Biotech). For control oligonucleotide, a reverse sequence (SEQ ID NO: 5) of the base sequence represented by SEQ ID NO: 4 was likewise phosphorothioated, purified on HPLC and used for the test (Amersham Pharmacia Biotech).
Breast cancer cell line MDA-MB-231 (In Vitro, 14 (11), 911-915, 1978, purchased from ATCC) was used as cells to be tested and on the day before transfecting the oligonucleotide, the cells were plated in 18×10^3 on a 24-well plate (manufactured by Falcon). To transfect the oligonucleotide, OligofectAMINE (manufactured by Invitrogen) was used to follow its protocol. In accordance with the protocol of RNeasy mini kit (manufactured by Qiagen), RNA was extracted 7 hours after the transfection and cDNA was prepared using TaqMan Reverse Transcription Reagents (manufactured by Applied Biosystems). Using 2 primers (SEQ ID NO: 6 and SEQ ID NO: 7) and probe (SEQ ID NO: 8; Amersham Pharmacia Biotech), quantitative PCR was carried out by ABI PRISM TM 7700 Sequence Detector (manufactured by Applied Biosystems). […]

The substance “antisense: phosphorothioated antisense oligonucleotide (SEQ ID NO: 4) to the full-length SUV39H1 sequence shown by SEQ ID NO: 3 (antisense ATGCGTCCCAGATGGCTGCG; all phosphorothioate, sugars by position and methylation of C not given here)” gave an apoptosis in data set [1] of 213%. In the data set on SUV39H1, the “expression (RNA) of SUV39H1” value is listed as 70%.
